# Experimental data reported in US20200253211A1, “PHOTODYNAMIC INHIBITION OF MICROBIAL PATHOGENS IN PLANTS” (SUNCOR ENERGY INC, priority 2017, published 2020).
# How the values were obtained:
# Assay type in all cases: cell-based
# [1] = test system: Botrytis cinerea mycelia; test: Photodynamic inhibition of Botrytis cinerea mycelia, percentage of dead samples after 7 days on agar
# Protocol: (§1) In the experiments, Botrytis cinerea mycelia were grown in liquid medium for 48 hours. Small spheres of the mycelia (average diameter 2 mm) were incubated for 100 minutes with Mg-Chlorophyllin with or without 5 mM Disodium-EDTA. Samples were illuminated with 395 nm (fluence 106.6 J cm^−2) for 120 minutes and the radial growth of mycelial patches after 7 days on agar medium was measured. A sample was considered dead, if there was no growth observable after 7 days on agar plates.
# as §1, with “mM EDTA (calcium or disodium).” for “mM Disodium-EDTA.”, “120 min” for “120 minutes”
# as §1, with “without Baypure DS100” for “without 5 mM Disodium-EDTA.”, “120 min” for “120 minutes”
# The protocol for the PDI of B. cinerea was as follows (for experiments 3 and 4 described above): • Grow B. cinerea on malt-peptone-agar for some days. • Transfer spores of B. cinerea to liquid malt-peptone medium. • Incubate for 2-3 days at 26° C. under constant agitation. • Transfer the grown mycelia (spheres of mycelia, approximately 2 mm diameter) to 24 well plates. • Add 500 μl of the PS to the well. • Incubate under agitation for 100 minutes in the dark. • Illuminate under agitation for 120 minutes. • Transfer the treated mycelia to malt-peptone-agar plates and incubate for one week at room temperature. • Evaluate by counting of dead samples.
# [2] = test system: Sclerotinia homoeocarpa; test: Radial growth of dollar spot fungus after treatment of plugs in PBS (24 well plates), dark vs light; conditions: for inhibition at 500 µM: Clarireedia homoeocarpa
# Protocol: In this example, control of dollar spot fungus (Sclerotinia homoeocarpa) with chlorins combined with a chelating agent was assessed. Treatments were prepared in Phosphate Buffered Saline (PBS) in 24 well plates (in duplicates for light vs. dark incubation) at desired concentrations. Then, a 5 mm diameter plug of a Sclerotinia homoeocarpa isolate (3 isolates total tested) was inoculated into the PBS and incubated at 21° C. in the dark for 2 hours. After 2 hours, one of the 24 well plates (with isolates in triplicate) is left in the dark and one 24 well plate is placed under illumination for 1 hour (all at 21° C.). Following illumination, fungal plugs are removed from PBS, blotted dry on sterile filter paper and transferred to non-amended Potato Dextrose Agar (PDA). Radial growth of the fungus is monitored daily until the growth of S. homoeocarpa reaches the edge of the Petri-dish. Illumination is provided by LED lights emitting about 1000 μmol/m^2/s photosynthetically active radiation (PAR). In this example, control of dollar spot fungus (Sclerotinia homoeocarpa) with Zinc Protoporphyrin IX (Zn-PPIX) combined with EDTA was assessed. Treatments were prepared in Phosphate Buffered Saline (PBS) in 24 well plates (in duplicates for light vs. dark incubation) at desired concentrations. Then, a 5 mm diameter plug of a Sclerotinia homoeocarpa isolate (3 isolates total tested) was inoculated into the PBS and incubated at 21° C. in the dark for 2 hours. After 2 hours, one of the 24 well plates (with isolates in triplicate) is left in the dark and one 24 well plate is placed under illumination for 1 hour (all at 21° C.). Following illumination, fungal plugs are removed from PBS, blotted dry on sterile filter paper and transferred to non-amended Potato Dextrose Agar (PDA). Radial growth of the fungus is monitored daily until the growth of S. homoeocarpa reaches the edge of the Petri-dish. Illumination is provided by LED lights emitting about 1000 μmol/m^2/s photosynthetically active radiation (PAR). In this example, control of dollar spot fungus (Sclerotinia homoeocarpa) with bacteriochlorin combined with EDTA was assessed. Treatments were prepared in Phosphate Buffered Saline (PBS) in 24 well plates (in duplicates for light vs. dark incubation) at desired concentrations. Then, a 5 mm diameter plug of a Sclerotinia homoeocarpa isolate (3 isolates total tested) was inoculated into the PBS and incubated at 21° C. in the dark for 2 hours. After 2 hours, one of the 24 well plates (with isolates in triplicate) is left in the dark and one 24 well plate is placed under illumination for 1 hour (all at 21° C.). Following illumination, fungal plugs are removed from PBS, blotted dry on sterile filter paper and transferred to non-amended Potato Dextrose Agar (PDA). Radial growth of the fungus is monitored daily until the growth of S. homoeocarpa reaches the edge of the Petri-dish. Illumination is provided by LED lights emitting about 1000 μmol/m^2/s photosynthetically active radiation (PAR). In this example, control of dollar spot fungus (Sclerotinia homoeocarpa) with Aluminum chlorin e6 combined with EDTA was assessed. Treatments were prepared in Phosphate Buffered Saline (PBS) in 24 well plates (in duplicates for light vs. dark incubation) at desired concentrations. Then, a 5 mm diameter plug of a Sclerotinia homoeocarpa isolate (3 isolates total tested) was inoculated into the PBS and incubated at 21° C. in the dark for 2 hours. After 2 hours, one of the 24 well plates (with isolates in triplicate) is left in the dark and one 24 well plate is placed under illumination for 1 hour (all at 21° C.). Following illumination, fungal plugs are removed from PBS, blotted dry on sterile filter paper and transferred to non-amended Potato Dextrose Agar (PDA). Radial growth of the fungus is monitored daily until the growth of S. homoeocarpa reaches the edge of the Petri-dish. Illumination is provided by LED lights emitting about 1000 μmol/m^2/s photosynthetically active radiation (PAR). […]
# [3] = test system: Erwinia amylovora; test: Photodynamic inactivation of Erwinia amylovora grown in liquid medium, CFU counted on plates; conditions: Table 1
# Protocol: E. amylovora is grown in liquid medium. Samples are incubated for 30 min with 100 μM of Mg-Chlorophyllin with or without 5 mM of Disodium-EDTA, and then illuminated with 395 nm (fluence 26.6 J cm^−2) for 30 mins. CFU of the bacteria is counted on the plates.
# In the experiment, E. amylovora were grown in liquid medium. Samples were incubated for 30 min with 100 μM of Mg-Chlorophyllin with or without Chelators, and then illuminated with 395 nm (fluence 26.6 J cm^−2) for 30 mins. CFU of the bacteria was counted on the plates.
# [4] = Table 22A, dark, rate 500 μM, growth between 48 and 72 hours
# [5] = Table 22B, light, rate 500 μM, growth between 48 and 72 hours
compound,measurement,setting,value
"O=C(O)CN(CCN(CC(=O)O)CC(=O)O)CC(=O)O [EDTA, disodium EDTA]",dead %,"[1]; Table 3, EDTA 5 mM alone, in dark",0%
same,dead %,"[1]; Table 3, EDTA 5 mM alone, with light",0%
same,dead %,"[1]; Table 4, EDTA-Na 5 mM alone, with light",0%
same,inhibition at 500 µM,"[2]; Table 18A, dark, rate 500 μM",39.8%
same,inhibition at 500 µM,"[2]; Table 18B, light, rate 500 μM",16.6%
same,inhibition at 500 µM,"[2]; Table 19A, light, rate 500 μM",36%
same,inhibition at 500 µM,"[2]; Table 20A, dark, rate 500 μM",32.8%
same,inhibition at 500 µM,"[2]; Table 20B, light, rate 500 μM",33.5%
same,inhibition at 500 µM,"[2]; Table 21A, dark, rate 500 μM",11.6%
same,inhibition at 500 µM,"[2]; Table 21B, light, rate 500 μM",15.3%
same,inhibition at 500 µM,[2]; [4],-3.89%
same,inhibition at 500 µM,[2]; [5],35.2%
same,inhibition at 500 µM,"[2]; Table 31A, dark, rate 500 μM",13.6%
same,inhibition at 500 µM,"[2]; Table 31B, light, rate 500 μM",36.4%
same,Mean Radial Growth,"[2]; Table 18A, dark, rate 500 μM",6.72 mm
same,Mean Radial Growth,"[2]; Table 18B, light, rate 500 μM",9.22 mm
same,Mean Radial Growth,"[2]; Table 19A, light, rate 500 μM",7.11 mm
same,Mean Radial Growth,"[2]; Table 20A, dark, rate 500 μM",7.17 mm
same,Mean Radial Growth,"[2]; Table 20B, light, rate 500 μM",7.17 mm
same,Mean Radial Growth,"[2]; Table 21A, dark, rate 500 μM",11.06 mm
same,Mean Radial Growth,"[2]; Table 21B, light, rate 500 μM",10.78 mm
same,Mean Radial Growth,[2]; [4],14.83 mm
same,Mean Radial Growth,[2]; [5],8.89 mm
same,Mean Radial Growth,"[2]; Table 31A, dark, rate 500 μM",12.67 mm
same,Mean Radial Growth,"[2]; Table 31B, light, rate 500 μM",8.17 mm
same,"Relative inactivation, CFU","[3]; EDTA 5 mM alone, in light",11.1
"C=Cc1c(C)c2cc3nc(c(CC(=O)[O-])c4[n-]c(cc5nc(cc1[n-]2)C(C)=C5CC)c(C)c4C(=O)[O-])C(CCC(=O)[O-])C3C.[Mg+2].[Na+].[Na+].[Na+] (stereo not shown) [Mg-Chlorophyllin, Mg-chlorophyllin]",dead %,"[1]; Table 3, Mg-Chlorophyllin 10 μM alone, in light",0%
same,dead %,"[1]; Table 3, Mg-Chlorophyllin 100 μM alone, in light",0%
same,dead %,"[1]; Table 4, Mg-Chlorophyllin 100 μM alone, in light",0%
same,Percentage of dead samples [%],"[1]; Table 27, MgChln 100 μM, with light",0%
same,% Inhibition,"[2]; Table 18A, dark, rate 10 μM",−3.98%
same,Mean Radial Growth,"[2]; Table 18A, dark, rate 10 μM",11.61 mm
same,% Inhibition,"[2]; Table 18A, dark, rate 100 μM",−11.94%
same,Mean Radial Growth,"[2]; Table 18A, dark, rate 100 μM",12.50 mm
same,% Inhibition,"[2]; Table 18B, light, rate 10 μM",31.66%
same,Mean Radial Growth,"[2]; Table 18B, light, rate 10 μM",7.56 mm
same,% Inhibition,"[2]; Table 18B, light, rate 100 μM",22.61%
same,Mean Radial Growth,"[2]; Table 18B, light, rate 100 μM",8.56 mm
same,% Inhibition,"[2]; Table 25A, dark, rate 5 μM",1.04%
same,Mean Radial Growth,"[2]; Table 25A, dark, rate 5 μM",10.56 mm
same,% Inhibition,"[2]; Table 25B, light, rate 5 μM",37.76%
same,Mean Radial Growth,"[2]; Table 25B, light, rate 5 μM",6.78 mm
same,"Relative inactivation, CFU","[3]; Mg-Chlorophyllin 100 μM without EDTA, in light (395 nm, 30 mins)",1.9
